# Laboratory results from patent publication US6800628B2, “N-substituted 4-((-4′-aminobenzoyl)-oxymethyl)-piperidines having gastric prokinetic properties” (Janssen Pharmaceutica N.V., priority 1996, dated 2004).
# Assays:
# [1] = target: 5 HT4 receptor (Homo sapiens, UniProt Q13639); conditions: stated for prior art compounds; cited from earlier work
# [2] = test system: conscious dogs; test: Gastric emptying of an acaloric liquid test meal delayed by administration of lidamidine, in conscious dogs; type: in vivo, beagle dogs; conditions: gastric emptying of a liquid meal delayed by lidamidine in conscious dog; dose of 0.04 mg/kg of the test compound
# Source text: “Gastric Emptying of an Acaloric Liquid Test Meal Delayed by […] of Lidamidine, in Conscious Dogs” Test
# Female beagle dogs, weighing 7-14 kg, were trained to stand quietly in Pavlov frames. They were implanted with a gastric cannula under general anaesthesia and aseptic precautions. After a median laparatomy, an incision was made through the gastric wall in the longitudinal direction between the greater and the lesser curve, 2 cm above the nerves of Latarjet. The cannula was secured to the gastric wall by means of a double purse string suture and brought out via a stab wound at the left quadrant of the hypochondrium. Dogs were allowed a recovery period of at least two weeks. […]
# In the 1 ml samples of the gastric contents, the glucose concentrations were measured on a Hitachi 717 automatic analyser by the hexokinase method (Schmidt, 1961).
# Curves were fitted to the measurement points (glucose vs time) using weighed non-linear regression analysis. Gastric emptying was quantified as the time needed to empty 70% of the meal (t70%). The control emptying time was calculated as the mean t70% of the last 5 solvent experiments of the same dog. Acceleration of delayed gastric emptying (Δt) was calculated as the time difference between t70% compound and t70% solvent. To correct for variations in emptying rate between dogs, Δt was expressed as % of t70% solvent (Schuurkes et al, 1992).
# Chain of 5 HT4 receptor (Q13639 whole entry): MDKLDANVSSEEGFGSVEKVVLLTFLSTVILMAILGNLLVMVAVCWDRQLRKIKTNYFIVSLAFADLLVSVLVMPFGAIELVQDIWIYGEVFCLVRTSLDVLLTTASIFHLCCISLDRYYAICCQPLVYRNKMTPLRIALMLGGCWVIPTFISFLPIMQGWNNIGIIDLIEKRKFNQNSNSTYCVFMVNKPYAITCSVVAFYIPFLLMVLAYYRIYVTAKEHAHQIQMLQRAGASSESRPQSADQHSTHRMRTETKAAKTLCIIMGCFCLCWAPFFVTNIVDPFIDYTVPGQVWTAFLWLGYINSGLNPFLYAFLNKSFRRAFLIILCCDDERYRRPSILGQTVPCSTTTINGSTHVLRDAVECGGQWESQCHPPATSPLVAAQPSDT
Compound,5 HT4 receptor activity (agonistic / antagonistic) [1],further results
"CCCCN1CCC(OC(=O)c2cc(Cl)c(N)c3c2OCCO3)CC1 [8-amino-7-chloro-1,4-benzodioxan-5-(1-butyl-4-piperidinyl)carboxylate]",5 HT4 receptor antagonistic activity,–
"COc1cc(N)c(Cl)cc1C(=O)OCC1CCN(CCCOc2ccc(F)cc2)CC1 [Compound 1, [1-[3-(4-fluorophenoxy)propyl]-4-piperidinyl]methyl 4-amino-5-chloro-2-methoxybenzoate]",–,melting point: 140 °C
"CCCCN1CCC(COC(=O)c2cc(Cl)c(N)c3c2OCC3)CC1.Cl [(1-butyl-4-piperidinyl)methyl-4-amino-5-chloro-2,3-dihydrobenzo[b]furan-7-carboxylate hydrochloride]",5 HT4 receptor agonistic activity,–
"Nc1c(Cl)cc(C(=O)OCC2CCN(Cc3cccnc3)CC2)c2c1OCCO2 [5-(1-(3-pyridylmethyl)-4-piperidinyl)methyl-8-amino-7-chloro-1,4-benzo-dioxancarboxylate]",5 HT4 receptor antagonistic activity,–
"CCCCN1CCC(COC(=O)c2cc(Cl)c(N)c3c2OCCC3)CC1.Cl [(1-butyl-4-piperidinyl)methyl-5-amino-6-chloro-3,4-dihydro-2-H-1-benzopyran-8-carboxylate hydrochloride]",5 HT4 receptor antagonistic activity,–
"Cc1nccnc1NCCN1CCC(COC(=O)c2cc(Cl)c(N)c3c2OC(C)(C)C3)CC1 [Compound 6, [1-[2-[(3-methyl-2-pyrazinyl)amino]ethyl]-4-piperidinyl]methyl 4-amino-5-chloro-2,3-dihydro-2,2-dimethyl-7-benzofurancarboxylate]",–,Acceleration (Δt/t) [2]: −0.41
"CCCCN1CCC(COC(=O)c2cc(Cl)c(N)c3c2OCCO3)CC1 [(1-butyl-4-piperidinyl)methyl 8-amino-7-chloro-1,4-benzodioxan-5-carboxylate]",5 HT4 receptor antagonistic activity,–
"CCOC(=O)CCN1CCC(COC(=O)c2cc(Cl)c(N)c3c2OCCO3)CC1 [[1-(2-carbo-ethoxyethyl)-4-piperidinyl]methyl-8-amino-7-chloro-1,4-benzodioxan-5-carboxylate]",5 HT4 receptor antagonistic activity,–
"CC(O)CCN1CCC(COC(=O)c2cc(Cl)c(N)c3c2OCCO3)CC1 (stereo not drawn) [[1-(3-hydroxybutyl)-4-piperidinyl]methyl-8-amino-7-chloro-1,4-benzodioxan-5-carboxylate]",5 HT4 receptor antagonistic activity,–
